Data as given in patent US5298494A, “Monosaccharides having anti-proliferation and anti-inflammatory activity, compositions and uses thereof” (Greenwich Pharmaceuticals Incorporated, priority 1993, dated 1994).

Assays:
[1] = test system: T cell proliferation in mouse spleen cell mixed lymphocyte cultures; test: Mixed Lymphocyte Reaction (MLR) assay; assay type: cell-based, mouse (Balb/c responder, C57B1/6 stimulator); settings: for inhibition at 3 µM / inhibition at 10 µM / inhibition at 30 µM / inhibition at 100 µM / inhibition at 300 µM: Mus musculus, Lymphocyte, read-out: % Change From Control, MLR
How it was run: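 Balb/c responder spleen cells (2.5×10^5) co-cultured with mitomycin C-treated C57Bl/6 stimulators (5×10^5) for 5 days at 37 C with compound dilutions of 3–300 uM or DMSO. Proliferation read by MTT (OD 570-650 nm). Allogeneic minus syngeneic means were expressed as % change from vehicle control.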

[2] = test system: Interleukin 1 (IL-1) production by peritoneal macrophages; test: IL-1 Assay: production of interleukin-1 by peritoneal macrophages (thymocyte bioassay); assay type: cell-based, mouse (C57B1/6); design: inhibition: dose or concentration left out as unconfirmed; settings: for inhibition at 0.001 µg/mL / inhibition at 0.01 µg/mL / inhibition at 0.1 µg/mL / inhibition at 2.5 µg/mL / inhibition at 10 µg/mL / inhibition at 25 µg/mL / inhibition at 100 µg/mL / inhibition: Mus musculus, Peritoneal macrophage, read-out: % effect on IL-1 production (thymidine uptake by thymocytes)
Source text: Interleukin 1 (IL-1) is a potent immunomodulatory cytokine that has a broad range of pro-inflammatory activities. IL-1 is known to be produced by activated accessory cells such as macrophages. Accessory cell production of IL-1 results in the activation and proliferation of T and B lymphocytes. Therefore, by inhibiting macrophage activation and production of IL-1, the activation and proliferation of the cellular effectors of inflammation can be modulated. Compounds of the invention were screened for inhibitory activity in a classical IL-1 assay. Six to 8 week old male C57B1/6 mice were purchased from Harlan Sprague Dawley. Peritoneal macrophages were elicited by the administration to mice of a single intraperitoneal injection of 0.2 ml of complete Freund's adjuvant. After 48 hours, elicited macrophages were removed from the mice by lavage with the use of Hank's balanced salt solution. […] To the macrophage cultures were added various doses of the compounds of the invention and 10 ug/ml of the macrophage activator lipopolysaccharide (to stimulate IL-1 production). Control cultures consisted of macrophages, lipopolysaccharide and culture medium containing various doses of DMSO only. […] The amount of IL-1 produced in the individual wells was determined in a bioassay for IL-1. This involved the removal of thymuses from mice less than 8 weeks of age. Thymocytes were isolated by passing each thymus through a stainless steel mesh screen. […] After 18 hours cells were harvested and radioactive incorporation (as a measure of cell proliferation) was quantitated in a liquid scintillation counter. The students t test was used to determine the significance of the difference between experimental and control values.

CCCCC/C=C/COC[C@H]1O[C@@]2(OC)COC(C)(C)O[C@H]2[C@@H]1OC/C=C/CCCCC [Ie, methyl 1,3-O-isopropylidene-4,6-di-O-(trans,2-octenyl)-α-D-fructofuranoside]
Mean O.D. Allogenic ([1]; 3 um): 0.341 O.D. | Mean O.D. Syngeneic ([1]; 3 um): 0.133 O.D. | Mean O.D. Allogenic ([1]; 10 um): 0.318 O.D. | Mean O.D. Syngeneic ([1]; 10 um): 0.130 O.D. | Mean O.D. Allogenic ([1]; 30 um): 0.266 O.D. | Mean O.D. Syngeneic ([1]; 30 um): 0.178 O.D. | Mean O.D. Allogenic ([1]; 100 um): 0.216 O.D. | Mean O.D. Syngeneic ([1]; 100 um): 0.146 O.D. | Mean O.D. Allogenic ([1]; 300 um): 0.152 O.D. | Mean O.D. Syngeneic ([1]; 300 um): 0.082 O.D. | inhibition at 3 µM ([1]; 3 um): -8% | inhibition at 10 µM ([1]; 10 um): 2% | inhibition at 30 µM ([1]; 30 um): 54% | inhibition at 100 µM ([1]; 100 um): 64% | inhibition at 300 µM ([1]; 300 um): 64% | ^3 H-Thymidine uptake by thymocytes ([2]; 0.001 ug/ml): 12,713 ± 866 cpm | ^3 H-Thymidine uptake by thymocytes ([2]; 0.01 ug/ml): 12,040 cpm | ^3 H-Thymidine uptake by thymocytes ([2]; 0.1 ug/ml): 11,047 ± 702 cpm | ^3 H-Thymidine uptake by thymocytes ([2]; 1 ug/ml): 9,710 ± 1,323 cpm | ^3 H-Thymidine uptake by thymocytes ([2]; 2.5 ug/ml): 7,000 ± 686 cpm | ^3 H-Thymidine uptake by thymocytes ([2]; 10 ug/ml): 6,100 ± 775 cpm | ^3 H-Thymidine uptake by thymocytes ([2]; 25 ug/ml): 5,300 ± 1,405 cpm | ^3 H-Thymidine uptake by thymocytes ([2]; 100 ug/ml): 4,300 ± 1,100 cpm | inhibition at 0.001 µg/mL ([2]; 0.001 ug/ml): -17% | inhibition at 0.01 µg/mL ([2]; 0.01 ug/ml): -11% | inhibition at 0.1 µg/mL ([2]; 0.1 ug/ml): 1% | inhibition at 2.5 µg/mL ([2]; 2.5 ug/ml): 30% | inhibition at 10 µg/mL ([2]; 10 ug/ml): 40% | inhibition at 25 µg/mL ([2]; 25 ug/ml): 40% | inhibition at 100 µg/mL ([2]; 100 ug/ml): 51% | inhibition [2]: 12%

CCCCCCCOC[C@H]1O[C@@]2(OC)COC(C)(C)O[C@H]2[C@@H]1O [Ia, methyl 1,3-O-isopropylidene-6-O-heptyl-α-D-fructofuranoside]
Mean O.D. Allogenic ([1]; 3 um): 0.375 O.D. | Mean O.D. Syngeneic ([1]; 3 um): 0.193 O.D. | Mean O.D. Allogenic ([1]; 10 um): 0.361 O.D. | Mean O.D. Syngeneic ([1]; 10 um): 0.175 O.D. | Mean O.D. Allogenic ([1]; 30 um): 0.334 O.D. | Mean O.D. Syngeneic ([1]; 30 um): 0.167 O.D. | Mean O.D. Allogenic ([1]; 100 um): 0.429 O.D. | Mean O.D. Syngeneic ([1]; 100 um): 0.192 O.D. | Mean O.D. Allogenic ([1]; 300 um): 0.162 O.D. | Mean O.D. Syngeneic ([1]; 300 um): 0.107 O.D. | inhibition at 3 µM ([1]; 3 um): 5% | inhibition at 10 µM ([1]; 10 um): 3% | inhibition at 30 µM ([1]; 30 um): 13% | inhibition at 100 µM ([1]; 100 um): -23% | inhibition at 300 µM ([1]; 300 um): 71% | ^3 H-Thymidine uptake by thymocytes ([2]; 0.001 ug/ml): 10,550 cpm | ^3 H-Thymidine uptake by thymocytes ([2]; 0.01 ug/ml): 10,960 cpm | ^3 H-Thymidine uptake by thymocytes ([2]; 0.1 ug/ml): 10,265 ± 227 cpm | ^3 H-Thymidine uptake by thymocytes ([2]; 1 ug/ml): 10,777 ± 1,903 cpm | ^3 H-Thymidine uptake by thymocytes ([2]; 2.5 ug/ml): 8,250 ± 705 cpm | ^3 H-Thymidine uptake by thymocytes ([2]; 10 ug/ml): 4,970 ± 410 cpm | ^3 H-Thymidine uptake by thymocytes ([2]; 25 ug/ml): 3,210 ± 149 cpm | ^3 H-Thymidine uptake by thymocytes ([2]; 100 ug/ml): 2,215 ± 643 cpm | inhibition at 0.001 µg/mL ([2]; 0.001 ug/ml): 3% | inhibition at 0.01 µg/mL ([2]; 0.01 ug/ml): -1% | inhibition at 0.1 µg/mL ([2]; 0.1 ug/ml): 8% | inhibition at 2.5 µg/mL ([2]; 2.5 ug/ml): 28% | inhibition at 10 µg/mL ([2]; 10 ug/ml): 51% | inhibition at 25 µg/mL ([2]; 25 ug/ml): 63% | inhibition at 100 µg/mL ([2]; 100 ug/ml): 75% | inhibition [2]: 2%

CC1(C)OC2OC(C(O)COCCCc3ccccc3)C(O)C2O1 [IIIe, 1,2-O-Isopropylidene-6-O-3'-(phenylpropyl)-α-D-glucofuranose]
Mean O.D. Allogenic ([1]; 3 um): 0.174 O.D. | Mean O.D. Syngeneic ([1]; 3 um): 0.052 O.D. | Mean O.D. Allogenic ([1]; 10 um): 0.122 O.D. | Mean O.D. Syngeneic ([1]; 10 um): 0.081 O.D. | Mean O.D. Allogenic ([1]; 30 um): 0.084 O.D. | Mean O.D. Syngeneic ([1]; 30 um): 0.066 O.D. | Mean O.D. Allogenic ([1]; 100 um): 0.034 O.D. | Mean O.D. Syngeneic ([1]; 100 um): 0.024 O.D. | Mean O.D. Allogenic ([1]; 300 um): 0.009 O.D. | Mean O.D. Syngeneic ([1]; 300 um): 0.010 O.D. | inhibition at 3 µM ([1]; 3 um): 19% | inhibition at 10 µM ([1]; 10 um): 73% | inhibition at 30 µM ([1]; 30 um): 88% | inhibition at 100 µM ([1]; 100 um): 93% | inhibition at 300 µM ([1]; 300 um): 101% | ^3 H-Thymidine uptake by thymocytes ([2]; 0.001 ug/ml): 7,276 ± 399 cpm | ^3 H-Thymidine uptake by thymocytes ([2]; 0.01 ug/ml): 8,908 ± 773 cpm | ^3 H-Thymidine uptake by thymocytes ([2]; 0.1 ug/ml): 8,049 ± 282 cpm | ^3 H-Thymidine uptake by thymocytes ([2]; 1 ug/ml): 4,279 ± 691 cpm | ^3 H-Thymidine uptake by thymocytes ([2]; 2.5 ug/ml): 3,676 ± 506 cpm | ^3 H-Thymidine uptake by thymocytes ([2]; 10 ug/ml): 2,586 ± 553 cpm | ^3 H-Thymidine uptake by thymocytes ([2]; 25 ug/ml): 1,840 ± 301 cpm | ^3 H-Thymidine uptake by thymocytes ([2]; 100 ug/ml): 1,129 ± 299 cpm | inhibition at 0.001 µg/mL ([2]; 0.001 ug/ml): -11% | inhibition at 0.01 µg/mL ([2]; 0.01 ug/ml): -8% | inhibition at 0.1 µg/mL ([2]; 0.1 ug/ml): -4% | inhibition at 2.5 µg/mL ([2]; 2.5 ug/ml): 56% | inhibition at 10 µg/mL ([2]; 10 ug/ml): 66% | inhibition at 25 µg/mL ([2]; 25 ug/ml): 76% | inhibition at 100 µg/mL ([2]; 100 ug/ml): 83% | inhibition [2]: -45%

CN1CCCC1CCNC[C@H]1OC(C)(C)O[C@@H]2[C@H]3OC(C)(C)O[C@H]3O[C@@H]21 (some centres unmarked) [IIIi]
effect on MLR in words [1]: strong non dose dependent inhibition of T lymphocyte proliferation | Mean O.D. Allogenic ([1]; 3 um): 0.128 O.D. | Mean O.D. Syngeneic ([1]; 3 um): 0.090 O.D. | Mean O.D. Allogenic ([1]; 10 um): 0.180 O.D. | Mean O.D. Syngeneic ([1]; 10 um): 0.102 O.D. | Mean O.D. Allogenic ([1]; 30 um): 0.165 O.D. | Mean O.D. Syngeneic ([1]; 30 um): 0.078 O.D. | Mean O.D. Allogenic ([1]; 100 um): 0.095 O.D. | Mean O.D. Syngeneic ([1]; 100 um): 0.066 O.D. | Mean O.D. Allogenic ([1]; 300 um): 0.019 O.D. | Mean O.D. Syngeneic ([1]; 300 um): 0.030 O.D. | inhibition at 3 µM ([1]; 3 um): 15% | inhibition at 10 µM ([1]; 10 um): 48% | inhibition at 30 µM ([1]; 30 um): 42% | inhibition at 100 µM ([1]; 100 um): 81% | inhibition at 300 µM ([1]; 300 um): 107% | ^3 H-Thymidine uptake by thymocytes ([2]; 0.001 ug/ml): 11,367 ± 906 cpm | ^3 H-Thymidine uptake by thymocytes ([2]; 0.01 ug/ml): 9,902 ± 888 cpm | ^3 H-Thymidine uptake by thymocytes ([2]; 0.1 ug/ml): 10,740 ± 724 cpm | ^3 H-Thymidine uptake by thymocytes ([2]; 1 ug/ml): 9,561 ± 113 cpm | ^3 H-Thymidine uptake by thymocytes ([2]; 2.5 ug/ml): 5,382 ± 45 cpm | ^3 H-Thymidine uptake by thymocytes ([2]; 10 ug/ml): 5,169 ± 870 cpm | ^3 H-Thymidine uptake by thymocytes ([2]; 25 ug/ml): 5,052 ± 140 cpm | ^3 H-Thymidine uptake by thymocytes ([2]; 100 ug/ml): 2,328 ± 278 cpm | inhibition at 0.001 µg/mL ([2]; 0.001 ug/ml): -39% | inhibition at 0.01 µg/mL ([2]; 0.01 ug/ml): -20% | inhibition at 0.1 µg/mL ([2]; 0.1 ug/ml): -39% | inhibition at 2.5 µg/mL ([2]; 2.5 ug/ml): 35% | inhibition at 10 µg/mL ([2]; 10 ug/ml): 33% | inhibition at 25 µg/mL ([2]; 25 ug/ml): 34% | inhibition at 100 µg/mL ([2]; 100 ug/ml): 65% | inhibition [2]: -22%
